Experimental findings from patent US7368279B2, “Three dimensional bioengineered smooth muscle tissue and sphincters and methods therefor” (The Regents of The University of Michigan, priority 2004, dated 2008) are described below.

For test [1], the system named is bioengineered IAS rings. Nature of the test: Isometric force (contraction/relaxation) of bioengineered IAS rings. Format: cell-based, rabbit. As for the experimental part: Excitability and contractility of bioengineered IAS rings was measured using techniques adapted from previous work (Dennis et al., In Vitro Cellular & Developmental Biology Animal 36: 327-335, 2000. Dennis et al., American Journal of Physiology Cell Physiology 280: C288-C295, 2001). The diameter of the sphincter rings was measured and used to calculate cross-sectional area (CSA). The bioengineered sphincters were separated from their molds using forceps (FIG. 1 Panel E) and the minimum ring diameter was measured using a calibrated eyepiece and a 5× or 10× objective lens on an inverted microscope (Zeiss Axiovert 25, Thornwood, N.Y.). The cross section was circular, and therefore the CSA was calculated using the measured diameter. To measure the passive baseline force, the differentiation media in the plate containing the bioengineered sphincter was replaced with 37° C. Krebs solution (NaCl (119 mM), KCl (4.6 mM), NaHCO3 (15 mM), CaCl2 (1.5 mM), MgCl2 (1.2 mM), […], and glucose (11 mM)) and the plate was placed on a heated aluminum platform, which maintained a temperature of 37° C. until the testing was complete. For contractility measurements, one end of the bioengineered sphincter was anchored by a stainless steel pin (10 mm×0.1 mm diameter) to the PDMS substrate within the plate, while another stainless steel pin was bent in the shape of a hook and attached by canning wax to a force transducer (resolution of 1.4 μN and range of 2mN) as previously described (Dennis et al., In Vitro Cellular & Developmental Biology Animal 36: 327-335, 2000, Macpherson et al., J Physiol 500: 523-533, 1997) and as depicted in FIG. 1 (Panels F and G). The bioengineered sphincter was stretched approximately 50% of its resting length using a three-axis micromanipulator. The ring was allowed to sit for 20 minutes in order to reestablish a stable baseline level of force (Pb), which was measured as the average baseline passive force preceding stimulation. All force measurements were collected at 100 samples/second for 60 seconds and recorded using a computer with LabVIEW data acquisition software (National Instruments, Austin, Tex.). A median filter of rank 2 was applied to all raw force data before being stored to minimize digitization noise without causing a phase delay for rapidly changing forces. The peak isometric force (ΔP) was determined by subtracting the Pb from the total force values. Specific force (sΔP) was calculated by dividing ΔP by the CSA. Data analysis was done using LabVIEW and Microsoft Excel software programs. Each measurement was repeated at least three times and the mean value was recorded. Contractions were induced in the rings by the addition of acetylcholine. Dose-response relationships of acetylcholine were investigated in the range of 10^−6M to 10^−10M. Incremental doses of acetylcholine were added after the maximal response of the preceding concentration and the establishment of a new baseline. Relaxation response in the rings was induced by the addition of 8-Bromoadenosine 3′:5′-Cyclic Monophosphate (8-br-cAMP). Maximal relaxation was achieved after approximately 4 minutes and therefore relaxation measurements are collective of four consecutive 1-minute data recordings.

In test [2] the test system is bioengineered IAS rings. Description: Isometric force of bioengineered IAS rings from adult, old and phosphomimic-HSP27 transfected old rat cells. Format: cell-based. Here is the method:
To measure the passive baseline force, the differentiation media in the plate containing the bioengineered sphincter was replaced with 37° C. Krebs solution (NaCl (119 mM), KCl (4.6 mM), NaHCO3 (15 mM), CaCl2 (1.5 mM), MgCl2 (1.2 mM), […], and glucose (11 mM)) and the plate was placed on a heated aluminum platform, which maintained a temperature of 37° C. until the testing was complete. For contractility measurements, one end of the bioengineered sphincter was anchored by a stainless steel pin (10 mm×0.1 mm diameter) to the PDMS substrate within the plate, while another stainless steel pin was bent in the shape of a hook and attached by canning wax to a force transducer (resolution of 1.4 μN and range of 2mN) as previously described (Dennis et al., In Vitro Cellular & Developmental Biology Animal 36: 327-335, 2000, Macpherson et al., J Physiol 500: 523-533, 1997) and as depicted in FIG. 1 (Panels F and G). The bioengineered sphincter was stretched approximately 50% of its resting length using a three-axis micromanipulator. The ring was allowed to sit for 20 minutes in order to reestablish a stable baseline level of force (Pb), which was measured as the average baseline passive force preceding stimulation. All force measurements were collected at 100 samples/second for 60 seconds and recorded using a computer with LabVIEW data acquisition software (National Instruments, Austin, Tex.). A median filter of rank 2 was applied to all raw force data before being stored to minimize digitization noise without causing a phase delay for rapidly changing forces. The peak isometric force (ΔP) was determined by subtracting the Pb from the total force values. Specific force (sΔP) was calculated by dividing ΔP by the CSA. Data analysis was done using LabVIEW and Microsoft Excel software programs. Each measurement was repeated at least three times and the mean value was recorded. Bioengineered sphincter rings using smooth muscle cells isolated from IAS of adult and old rats were generated as described in Example 2 to study the molecular mechanism of aging on sphincteric smooth muscle. […] This corresponds to the previously described acetylcholine-induced contraction of human IAS muscle strips (16, 17, 27). […] Phosphomimic-HSP27 was introduced into the sphincteric smooth muscle cells from old rats. […] To test this hypothesis on a physiological level, bioengineered sphincter rings were made from phosphomimic-HSP27 transfected-IAS smooth muscle cells of old rats and the contractile response was assessed.

For `CC(=O)OCC[N+](C)(C)C` [acetylcholine], the “concentration at which the concentration-dependent contractile response reaches a plateau” value in test [1] (10-fold incremental doses 10^−10 M to 10^−6 M) is listed as 10^−7 M. Besides, the “peak isometric force ΔP” value in test [1] (10^−7 M acetylcholine, Krebs buffer, sustained for 4 minutes) came to 9.8±3.8 μN. Also, the “maximal ΔP induced by acetylcholine stimulation” value in test [1] (Krebs buffer) is given as 33.7 μN. Moreover, the “maximum force of old rings, fold less than adult rings (FIG. 5 panel B)” value in test [2] (10^−6 M acetylcholine) was “approximately 3 fold”. Besides, the “average ΔP / force generated” value in test [2] (adult rat IAS rings, 10^−6 M acetylcholine) was found to be 8.925±2.4 μN. The “maximum force generated (FIG. 5 panel A)” value is recorded as 10.4±1.27 in test [2] (adult rat rings, n=3) and 5.5±1.09 in test [2] (old rat rings, n=4). Further, the force generated in test [2] (old rat IAS rings, 10^−6 M acetylcholine) is 5.55±1.1 μN. Besides, the “less force generated by old rings than adult rings” value in test [2] (stimulated with acetylcholine) is listed as “approximately 50%”.
